Assay results from PMC10787407, “Regulation of polysaccharide in Wu‐tou decoction on intestinal microflora and pharmacokinetics of small molecular compounds in AIA rats” (Chinese Medicine, 2024).
Read-outs that look alike come from different tables or passages of the source.

Key:
in vivo = conditions: Sprague-Dawley, rat, po, 39.2 g/kg/day; for Cmax: C max; for Tmax: T max
[1] = PK study of SM components in plasma of AIA rats by UPLC-MS/MS (MG vs MPS group); conditions: for Absorption under the intervention of PS: MPS vs MG group
[2] = rat, in vivo
[3] = MG group: AIA rats, saline 21 days, then oral SM 39.2 g crude drug/kg, plasma, mean ± SEM
[4] = MPS group: AIA rats, oral PS 9.8 g crude drug/kg/day 21 days, then oral SM 39.2 g crude drug/kg, plasma, mean ± SEM
[5] = t 1/2, MG group: AIA rats, saline 21 days, then oral SM 39.2 g crude drug/kg, plasma, mean ± SEM
[6] = t 1/2, MPS group: AIA rats, oral PS 9.8 g crude drug/kg/day 21 days, then oral SM 39.2 g crude drug/kg, plasma, mean ± SEM
[7] = MPS group compared with the MG group, AIA rats
[8] = Sprague-Dawley, po, 39.2 g/kg/day

C[C@@]12C[C@@]3(O)O[C@@H](O1)[C@]1(COC(=O)c4ccccc4)[C@H]3C[C@@]12O[C@@H]1O[C@H](COC(=O)c2ccccc2)[C@@H](O)[C@H](O)[C@H]1O [Benzoylpaeoniflorin]
AUC 0-t (in vivo; [3]): 27.9 ± 5.4 ng·h/mL
AUC 0-t (in vivo; [4]): 31.6 ± 6.74 ng·h/mL
AUC(0-inf) (in vivo; [3]): 30.6 ± 6.08 ng·h/mL
AUC(0-inf) (in vivo; [4]): 37.9 ± 9.82 ng·h/mL
Cmax (in vivo; [3]): 14.8 ± 2.66 ng/mL
Cmax (in vivo; [4]): 24.3 ± 4 ng/mL
Tmax (in vivo; [3]): 0.139 ± 0.079 h
Tmax (in vivo; [4]): 0.083 ± 0.001 h
half-life (in vivo; [5]): 3.59 ± 0.489 h
half-life (in vivo; [6]): 6.96 ± 2.27 h
Change of C max after oral PS [1, 7]: significantly increased
Absorption under the intervention of PS ([1]; AIA rats): increased

COc1ccc(-c2coc3cc(O)ccc3c2=O)cc1O [Calycosin]
AUC 0-t (in vivo; [3]): 12.3 ± 1.06 ng·h/mL
AUC 0-t (in vivo; [4]): 12.4 ± 0.972 ng·h/mL
AUC(0-inf) (in vivo; [3]): 14.3 ± 1.19 ng·h/mL
AUC(0-inf) (in vivo; [4]): 13.6 ± 0.642 ng·h/mL
Cmax (in vivo; [3]): 8.48 ± 2.43 ng/mL
Cmax (in vivo; [4]): 6.61 ± 1.44 ng/mL
Tmax (in vivo; [3]): 0.083 ± 0.001 h
Tmax (in vivo; [4]): 0.083 ± 0.001 h
half-life (in vivo; [5]): 4.94 ± 0.315 h
half-life (in vivo; [6]): 3.53 ± 0.666 h

CN[C@@H](C)[C@H](O)c1ccccc1 [Ephedrine]
AUC 0-t (in vivo; [3]): 1720 ± 96.8 ng·h/mL
AUC(0-inf) (in vivo; [3]): 1750 ± 93.6 ng·h/mL
AUC(0-inf) (in vivo; [4]): 1580 ± 228 ng·h/mL
Cmax (in vivo; [3]): 674 ± 137 ng/mL
Cmax (in vivo; [4]): 662 ± 149 ng/mL
Tmax (in vivo; [4]): 0.333 ± 0.118 h
half-life (in vivo; [5]): 1.85 ± 0.273 h
half-life (in vivo; [6]): 1.74 ± 0.108 h
T max [1, 3]: 0.250 ± 0.001 h
AUC 0-t [1, 4]: 1559.029 ± 227.025 ng·h/mL

O=C(/C=C/c1ccc(O[C@@H]2O[C@H](CO)[C@@H](O)[C@H](O)[C@H]2O)cc1)c1ccc(O)cc1O [Isoliquiritin]
AUC 0-t (in vivo; [3]): 23.3 ± 0.956 ng·h/mL
AUC 0-t (in vivo; [4]): 21.9 ± 1.76 ng·h/mL
AUC(0-inf) (in vivo; [3]): 30.8 ± 2.93 ng·h/mL
AUC(0-inf) (in vivo; [4]): 33.1 ± 3.19 ng·h/mL
Cmax (in vivo; [3]): 13.6 ± 1.06 ng/mL
Cmax (in vivo; [4]): 14.2 ± 1.55 ng/mL
Tmax (in vivo; [3]): 0.194 ± 0.079 h
Tmax (in vivo; [4]): 0.111 ± 0.062 h
half-life (in vivo; [5]): 5.85 ± 2.02 h
half-life (in vivo; [6]): 7.61 ± 1.85 h

O=C1C[C@@H](c2ccc(O[C@@H]3O[C@H](CO)[C@@H](O)[C@H](O)[C@H]3O)cc2)Oc2cc(O)ccc21 [Liquiritin]
AUC 0-t (in vivo; [3]): 300 ± 52.8 ng·h/mL
AUC(0-inf) (in vivo; [3]): 307 ± 53.9 ng·h/mL
Cmax (in vivo; [3]): 126 ± 18.5 ng/mL
Tmax (in vivo; [3]): 0.167 ± 0.083 h
Tmax (in vivo; [4]): 0.083 ± 0.001 h
half-life (in vivo; [5]): 2.09 ± 0.132 h
half-life (in vivo; [6]): 3.3 ± 0.429 h
Change of C max after oral PS [1, 7]: significantly increased
AUC 0-t [1, 4]: 321.663 ± 49.723 ng·h/mL
AUC 0-∞ [1, 4]: 339.781 ± 52.584 ng·h/mL
C max [1, 4]: 190.023 ± 19.153 ng/mL
Absorption under the intervention of PS ([1]; AIA rats): increased

C[C@@]12C[C@@]3(O)O[C@@H](O1)[C@]1(COC(=O)c4ccccc4)[C@H]3C[C@@]12O[C@@H]1O[C@H](CO)[C@@H](O)[C@H](O)[C@H]1O [Paeoniflorin]
AUC 0-t (in vivo; [3]): 2540 ± 95.9 ng·h/mL
AUC 0-t (in vivo; [4]): 2870 ± 71.7 ng·h/mL
AUC(0-inf) (in vivo; [3]): 2460 ± 223 ng·h/mL
AUC(0-inf) (in vivo; [4]): 2900 ± 68.7 ng·h/mL
Cmax (in vivo; [3]): 1920 ± 225 ng/mL
Cmax (in vivo; [4]): 2060 ± 352 ng/mL
Tmax (in vivo; [3]): 0.438 ± 0.108 h
Tmax (in vivo; [4]): 0.396 ± 0.18 h
half-life (in vivo; [5]): 2.13 ± 0.102 h
half-life (in vivo; [6]): 1.99 ± 0.126 h
Change of AUC 0-t after oral PS [1, 7]: increased
Change of AUC 0-∞ after oral PS [1, 7]: increased
Absorption under the intervention of PS ([1]; AIA rats): increased

C=C1[C@H]2C[C@@]3([C@@H]1O)[C@@H](CC2=O)[C@]12[C@@H]4C[C@H]3[C@H]1N(CC)C[C@]4(C)CC[C@@H]2O [Songorine]
AUC 0-t [2, 8]: 80.730 ± 5.544 ng·h/mL
AUC 0-∞ [2, 8]: 84.255 ± 5.364 ng·h/mL
C max [2, 8]: 17.665 ± 1.910 ng/mL
T max [2, 8]: 0.917 ± 0.773 h
t 1/2 [2, 8]: 2.522 ± 0.269 h
Absorption under the intervention of PS [2]: increased
Change of AUC 0-t after oral PS ([2]; po): increased
Change of AUC 0-∞ after oral PS ([2]; po): increased
AUC 0-t (in vivo): 60.2 ± 6.5 ng·h/mL
AUC(0-inf) (in vivo): 64.6 ± 6.04 ng·h/mL
Cmax (in vivo): 14 ± 2.32 ng/mL
Tmax (in vivo): 0.667 ± 0.236 h
half-life (in vivo; t 1/2): 2.64 ± 0.461 h
